Where two headings read alike, the source gives them in different places.
Columns and labels:
[1] = test system: histidine phosphatase; assay: Reagents affecting histidine phosphatase activity (dephosphorylation of 32P-CheA); assay type: biochemical, rabbit
Procedure: (§1) The activity of the soluble histidine phosphatase is determined from the dephosphorylation of ^32P-labelled histidine-phosphorylated protein (CheA) as substrate. CheA is a recombinant bacterial histidine autokinase (Bilwes A M, Alex L A, Crane B R, Simon M I (1999) Cell 96:131-141); the C-terminal kinase domain phosphorylates the N-terminal His48. […] Detection on the one hand via ammonium molybdate, and on the other hand by autoradiography (FIG. 2).
(§2) The substrate (10 μl of ^32P-CheA) is mixed with […] of assay buffer (100 mM triethanolamine/hydrochloric acid pH 8.0, 0.1% 2-mercaptoethanol, 0.02% sodium nitrite) and the enzyme solution. The reaction takes place at 37° C. in 30 min. […] After a centrifugation (5 min at 15,800 g), the supernatant is removed and measured in a scintillation counter.

[2] = test system: histidine protein phosphatase; assay: Hydrolysis of substrates by the novel histidine protein phosphatase (specificity); assay type: biochemical, rabbit
Procedure: as §1, §2

[3] = target: histidine protein phosphatase purified from rabbit liver (rabbit) (UniProt P83468); assay: cell-based or functional assay
[4] = assay type: physicochemical, rabbit; settings: in the crude homogenate and in the partially purified fractions
[5] = target: 32P-labelled histidine-phosphorylated CheA (recombinant bacterial histidine autokinase)
[6] = target: [gamma-32P] Ser/Thr-Casein
[7] = target: [gamma-32P] His-nucleoside diphosphate kinase

C=C1[C@@H](O)[C@@H]2O[C@]3(CC[C@H](/C=C/[C@@H](C)[C@@H]4CC(C)=C[C@@]5(O[C@H](C[C@@](C)(O)C(=O)O)CC[C@H]5O)O4)O3)CC[C@H]2O[C@@H]1[C@@H](O)C[C@H](C)[C@H]1O[C@@]2(CCCCO2)CC[C@H]1C [Okadaic acid]
Activity (%) ([1]; reagent concentration 10 μM): 108%
Inhibition of histidine phosphatase activity ([1]; text statement referring to Table 2): not being inhibited

O=[N+]([O-])c1ccc(OP(=O)(O)O)cc1 [p-nitrophenyl phosphate]
Hydrolysis by the histidine phosphatase [2]: did not hydrolyze

Inhibitor protein I1
Activity (%) of histidine phosphatase with 1 nM reagent [3]: 120%

[O]=[Mo](=[O])([O-])[O-] [Molybdate]
Activity (%) ([1]; 10 µM): 71%

O=C(O)CN(CCOCCOCCN(CC(=O)O)CC(=O)O)CC(=O)O [EGTA]
Activity (%) ([1]; reagent concentration 5 mM): 91%

Microcystin
Activity (%) ([1]; 0.005 µM): 110%

[O]=[V]([O-])([O-])[O-] [Vanadate]
Inhibition of histidine phosphatase activity [1]: not being inhibited
Activity (%) ([1]; 10 µM): 62%

[Mg+2] [Mg^2+]
Activity (%) ([1]; reagent concentration 1 mM): 142%
Activity (%) ([1]; reagent concentration 10 mM): 226%

[Ca+2] [Ca^2+]
Activity (%) ([1]; reagent concentration 1 mM): 165%
Activity (%) ([1]; reagent concentration 10 mM): 240%

CO[C@H]([C@H](O)CC(=O)[C@@H](C)[C@@H](O)CC[C@@H](C)[C@@H]1O[C@]2(CC[C@@H](C)[C@H](CC[C@H](C)C(C)=O)O2)CC[C@@H]1C)[C@H](OC(=O)C[C@@H](O)C1=C(C)C(=O)OC1=O)C(C)C [Tautomycin]
Activity (%) ([1]; reagent concentration 0.5 nM): 90%

B1: histidine protein phosphatase purified from rabbit liver (protein)
chain: AAAGLAQIPDVDIDSDGVFKYVLIRVHAAPPSEAPGGESKDIVRGYKWAEYHADIYDKVSGELQKKGHDCECLGGGRISHQSQDRKIHVYGYSMGYGRAQHSVSTEKIRAKYPDYEVTWADDGY
storage stability [4]: shows storage stability
Hydrolysis by the novel histidin protein phosphatase [5]: +
histidine dephosphorylation of 32P-phosphorylated CheA [5]: The purified protein shows time-, temperature-, pH- and protein-dependent histidine dephosphorylation of the 32P-phosphorylated CheA
Hydrolysis by the novel histidin protein phosphatase [6]: -
Hydrolysis by the novel histidin protein phosphatase [7]: -

Reference: patent publication US6812015B1, “Histidine protein-phosphatase” (Merck Patent Gesellschaft, priority 1999, dated 2004)
